15 compounds from US20050143463A1, “Method of inhibiting angiogenesis” (THE QUEEN ELIZABETH HOSPITAL RESEARCH FOUNDATION INC., priority 2002, published 2005) can be followed below.

In data set [1] the test system is Human umbilical vein endothelial cells (HUVEC). The experiment in a line: HUVEC proliferation assay (tritiated thymidine uptake). The format is cell-based. Conditions: for HUVEC proliferation (in words) / inhibition at 400 µM: 400 μM concentration; for HUVEC proliferation (in words): tritiated thymidine uptake; for inhibition at 400 µM: percentage of control cells with no added agent (Table 3), read-out: Percentage inhibition of HUVEC proliferation; for inhibition of HUVEC proliferation in vitro, dose dependent (in words): dose dependent manner. As for the experimental part: Human umbilical vein endothelial cells (HUVEC) were seeded in 96-well flat bottomed tissue culture plates at a density of 2.5-5×10^4 cells/well and treated with various dilutions of agents. Cells were cultured in RPMI medium containing 20% FCS, Penicillin/Streptomycin in a 5% CO2 atmosphere at 37° C. After 24 to 48 hours of incubation, cells were pulsed with 1 μCi of tritiated thymidine for 6 hours. The pulsed cells were trypsinised to detach from the wells and then harvested in a TOMTEC Cell Harvester onto glass fibre filters, which were dried and immersed in scintillation fluid and counted in a Wallac Microbeta scintillation counter. The results were reported as mean cpm±SD.

Data set [2] concerns chicken chorioallantoic membrane (CAM). Briefly: Chicken chorioallantoic membrane (CAM) assay for angiogenesis. The format is in vivo. The conditions noted are these: for inhibition of angiogenesis in the CAM assay, dose dependent (in words): dose dependent manner; for Vein length (%) / Artery length (%) / CAM Increase (%) / Total vessel length (%) / Vein Diameter (%): % of control, Mean ± SEM; for cytotoxicity to the embryo: chicken embryo, CAM assay; for effect of the lowest dose on vein length, artery length, total vessel length and vein diameter (in words): lowest dose (25 nmol). As for the experimental part:
Fertilised chicken eggs (HiChick Breeding Co, Kapunda, South Australia) were incubated for three days at 38° C. On Day 3 the embryos were cracked out of the egg and into a cup made of plastic piping, with plastic film stretched over the top to form a hammock for the egg to be suspended in. Two ml of DMEM containing penicillin and streptomycin was added to each cup prior to the egg being added. A petri dish on the top maintained sterility. Incubation continued in a humidified 37° C. incubator.
On Day 4 the chorioallantoic membrane (CAM) begins to grow, and pictures were taken of each embryo at ×5 to measure the CAM area using image analysis software (Video Pro 32, Leading Edge Pty Ltd, South Australia).
Embryos were then grouped according to their CAM area, with a control embryo in each for comparison. Grouping is critical as in these early developmental stages changes in the CAM growth are dramatic. Relatively small differences in size on Day 4 translate to large differences in the CAM on Day 5. Treatment was applied in methylcellulose discs, which were dried under vacuum overnight. The methylcellulose discs were applied to the top of the CAM, and at the beginning of treatment were at least three to four-fold bigger than the CAM area, meaning treatment covered the entire CAM surface.
On Day 5 skim milk with contrast medium was injected into the CAM. Pictures were then taken at various levels of magnification up to ×63. Quantitative measurements were made from ×5 pictures. CAM area, and vein and artery lengths were measured using image analysis (Video Pro 32, Leading Edge Pty Ltd, South Australia). Relative vessel lengths were then calculated as the total length/CAM area. Statistical analysis was made using SigmaStat and OneWay ANOVA with p<0.05 as the level of significance.

Setting [3] is: 25 nmol on methylcellulose disc.
[4] abbreviates: 50 nmol on methylcellulose disc.
Setting [5] is: 100 nmol on methylcellulose disc.

Turning to `CCC(C)CCCCCCCCCCCC(=O)O` (stereo not shown) [13-methyl pentadecanoic acid], in data set [1], the “HUVEC proliferation (in words)” value is “inhibited” and the “inhibition of HUVEC proliferation in vitro, dose dependent (in words)” value (“inhibition of HUVEC proliferation … (in words)” for short) is listed as “inhibit the proliferation”. The inhibition at 400 µM in data set [1] (Homo sapiens, HUVEC) turned out to be 21%.
Taken in the same sequence, the figures for `CCC(C)CCCCCCCCCCCCCC(=O)O` (stereo not shown) [15-methyl heptadecanoic acid] were “inhibited”, “inhibit the proliferation” and 49%.
Taken in the same sequence, the figures for `CC(C)CCCCCCCCCCC(=O)O` [12-methyl tridecanoic acid] were “inhibited”, “inhibit the proliferation” and 35%.
16-methyltetradecanoic acid: the “inhibition of angiogenesis in the CAM assay, dose dependent (in words)” value (“inhibition of angiogenesis” for short) in data set [2] is “inhibit angiogenesis”.
`CC(C)CCCCCCCCCCCCCC(=O)O` [15-methyl hexadecanoic acid]: in data set [1], the “HUVEC proliferation (in words)” value is “inhibited” and the “inhibition of HUVEC proliferation … (in words)” value is “inhibit the proliferation”. The inhibition at 400 µM in data set [1] (Homo sapiens, HUVEC) turned out to be 63%.
For the compound `CCC(C)CCCCCCCCCC(=O)O` (stereo not shown) [11-methyl tridecanoic acid], in data set [1], the “HUVEC proliferation (in words)” value is reported as “inhibited” and the “inhibition of HUVEC proliferation … (in words)” value is reported as “inhibit the proliferation”. In data set [1] (Homo sapiens, HUVEC), the inhibition at 400 µM is 42%.
For `CC(C)CCCCCCCCCC(=O)O` [11-methyl dodecanoic acid], in data set [1], the “HUVEC proliferation (in words)” value was “inhibited” and the “inhibition of HUVEC proliferation … (in words)” value is “inhibit the proliferation”. Moreover, the inhibition at 400 µM in data set [1] (Homo sapiens, HUVEC) was 83%.
With `CCCCCCCCC(C)CCCCCCCCC(=O)O` (stereo not shown) [10-MODA, 10-methyloctadecanoic Acid], the “Vein length (%)” value in data set [2] (setting [3]) is 88.4 ± 8.8%. For the same compound, in data set [2] (25 nmol), the “Artery length (%)” value came to 85.7 ± 6.2%, the “CAM Increase (%)” value worked out at 101.9 ± 11.2%, the “Total vessel length (%)” value is recorded as 85.7 ± 5.4% and the “Vein Diameter (%)” value is 82.9 ± 3.0%. Further, the “Vein length (%)” value in data set [2] (setting [4]) came out at 85.8 ± 14.1%. In addition, in data set [2] (50 nmol), the “Artery length (%)” value is 94.3 ± 6.3%, the “CAM Increase (%)” value is listed as 120.2 ± 25.5%, the “Total vessel length (%)” value is recorded as 88.9 ± 7.0% and the “Vein Diameter (%)” value is on record as 90.2 ± 9.8%. For the same compound, in data set [2] (100 nmol), the “number of branching capillaries sprouting from the main vessels” value (“number” for short) is “reduction”, the vessel area result is “diminished”, the “CAM Increase (%)” value is on record as 68.2 ± 8.6% and the “Vein Diameter (%)” value stood at 76.1 ± 16.2%. Besides, the “Vein length (%)” value in data set [2] (setting [5]) amounted to 70.9 ± 22.5%. In data set [2], the “cytotoxicity to the embryo” value is “not cytotoxic”; the “inhibition of angiogenesis” value was “inhibit angiogenesis”; the “effect of the lowest dose on vein length, artery length, total vessel length and vein diameter (in words)” value (shortened to “effect of the lowest dose on vein length”) is “inhibited”.
Regarding `CC(C)CCCCCCCCCCCCCCC(=O)O` [16-methyl heptadecanoic acid], in data set [1], the “HUVEC proliferation (in words)” value is given as “inhibited” and the “inhibition of HUVEC proliferation … (in words)” value is “inhibit the proliferation”. Besides, in data set [1] (Homo sapiens, HUVEC), the inhibition at 400 µM amounted to 19%.
Regarding `CC(C)CCCCCCCCC(=O)O` [10-methyl undecanoic acid], in data set [1], the “HUVEC proliferation (in words)” value was “inhibited” and the “inhibition of HUVEC proliferation … (in words)” value was “inhibit the proliferation”. The inhibition at 400 µM in data set [1] (Homo sapiens, HUVEC) was determined as 84%.
On to `CC(C)CCCCCCCCCCCCC(=O)O` [14-MPDA, 14-methylpentadecanoic Acid], for which the “Vein length (%)” value in data set [2] (setting [3]) stood at 89.6 ± 10.1%. Also, in data set [2] (25 nmol), the “Artery length (%)” value is 81.3 ± 11.4%, the “Total vessel length (%)” value is given as 84.7 ± 8.7% and the “Vein Diameter (%)” value is listed as 90.8 ± 9.2%. For the same compound, in data set [2] (setting [4]), the “Vein length (%)” value was found to be 80.9 ± 14.3%. In data set [2] (50 nmol), the “Artery length (%)” value is 81.4 ± 11.7%, the “Total vessel length (%)” value came to 80.9 ± 12.3% and the “Vein Diameter (%)” value came out at 81.8 ± 14.1%. Moreover, in data set [2] (100 nmol), the “number” value is recorded as “reduction”, the vessel area result was “diminished”, the “Artery length (%)” value was 83.5 ± 9.3% and the “Total vessel length (%)” value was determined as 74.0 ± 6.6%. Further, in data set [2] (100 nmol), the “Vein Diameter (%)” value came out at 76.3 ± 10.2%. Besides, the “Vein length (%)” value in data set [2] (setting [5]) is 63.3 ± 5.1^1%. In data set [2], the “cytotoxicity to the embryo” value is “not cytotoxic”; the “inhibition of angiogenesis” value was “inhibit angiogenesis”; the “effect of the lowest dose on vein length” value is given as “inhibited”. Besides, in data set [1], the “HUVEC proliferation (in words)” value was “inhibited” and the “inhibition of HUVEC proliferation … (in words)” value is on record as “inhibit the proliferation”. Also, the inhibition at 400 µM in data set [1] (Homo sapiens, HUVEC) was determined as 7%.
As to `CC(C)CCCCCCCCCCCCCCCC(=O)O` [17-MODA, 17-methyloctadecanoic Acid], the “Vein length (%)” value in data set [2] (setting [3]) is recorded as 81.3 ± 16.8%. Besides, in data set [2] (25 nmol), the “Artery length (%)” value is reported as 82.6 ± 18.0%, the “Total vessel length (%)” value was 81.9 ± 16.9% and the “Vein Diameter (%)” value was 71.6 ± 13.4%. Further, the “Vein length (%)” value in data set [2] (setting [4]) worked out at 112.8 ± 9.4%. In data set [2] (50 nmol), the “Artery length (%)” value came to 97.0 ± 11.7%, the “Total vessel length (%)” value came out at 104.2 ± 10.4% and the “Vein Diameter (%)” value is recorded as 81.3 ± 8.4%. Further, in data set [2] (100 nmol), the “number” value is given as “reduction”, the vessel area entry is “diminished”, the “Artery length (%)” value is recorded as 97.2 ± 17.4% and the “Total vessel length (%)” value is listed as 95.9 ± 18.1%. Also, the “Vein Diameter (%)” value in data set [2] (100 nmol) came to 70.0 ± 15.0%. Moreover, the “Vein length (%)” value in data set [2] (setting [5]) worked out at 94.3 ± 18.9%. Besides, in data set [2], the “cytotoxicity to the embryo” value is reported as “not cytotoxic”; the “inhibition of angiogenesis” value was “inhibit angiogenesis”; the “effect of the lowest dose on vein length” value is on record as “inhibited”.
Turning to `CCC(C)CCCCCCCCCCCCC(=O)O` (stereo not shown) [14-methyl hexadecanoic acid], in data set [1], the “HUVEC proliferation (in words)” value is listed as “inhibited” and the “inhibition of HUVEC proliferation … (in words)” value is “inhibit the proliferation”. Moreover, in data set [1] (Homo sapiens, HUVEC), the inhibition at 400 µM worked out at 41%.
`CO[C@H]1C[C@@H]2CC[C@@H](C)[C@@](O)(O2)C(=O)C(=O)N2CCCC[C@H]2C(=O)O[C@H]([C@H](C)C[C@@H]2CC[C@@H](O)[C@H](OC)C2)CC(=O)[C@H](C)/C=C(\C)[C@@H](O)[C@@H](OC)C(=O)[C@H](C)C[C@H](C)/C=C/C=C/C=C/1C` [rapamycin, reference compound]: in data set [1] (0.1 nM rapamycin, 24 hours (Table 2)), the “% Inhibition of HUVEC proliferation” value is 72.8%. The compound also displayed an inhibition at 0.0001 µM in data set [1] (Homo sapiens, HUVEC, 24 h, 0.1 nM rapamycin, 24 hours (Table 2)) of 73%. In data set [1] (Homo sapiens, HUVEC, 24 h, 1 nM rapamycin, 24 hours (Table 2)), this compound gave an inhibition at 0.001 µM of roughly 80%.
Regarding `CC(C)CCCCCCCCCCCC(=O)O` [13-MTA, 13-methyltetradecanoic Acid], in data set [2] (100 nmol), the “number” value is “reduction” and the vessel area entry is “diminished”. In data set [2], the “cytotoxicity to the embryo” value is “not cytotoxic”; the “inhibition of angiogenesis” value is “inhibit angiogenesis”; the “effect of the lowest dose on vein length” value was “inhibited”. In addition, in data set [1], the “HUVEC proliferation (in words)” value was “inhibited” and the “inhibition of HUVEC proliferation … (in words)” value is “inhibit the proliferation”. Besides, in data set [1] (Homo sapiens, HUVEC), the inhibition at 400 µM was found to be 19%.
